# Biological target: T1, AXL (Homo sapiens, UniProt P30530)
# T1 construct: purchased Thermo Fisher Scientific (Life Technologies) SelectScreen
# Assay: SelectScreen Z'LYTE
# Type: biochemical
# Method in brief: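 NU5455 was profiled across the SelectScreen Broad panel of kinase activity and binding assays. Z'LYTE reactions such as CSF1R ran at apparent Km ATP, while the Adapta CAMK1 assay used ATP listed as 10. Values are given as percent.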
# T1 sequence (P30530 26-894): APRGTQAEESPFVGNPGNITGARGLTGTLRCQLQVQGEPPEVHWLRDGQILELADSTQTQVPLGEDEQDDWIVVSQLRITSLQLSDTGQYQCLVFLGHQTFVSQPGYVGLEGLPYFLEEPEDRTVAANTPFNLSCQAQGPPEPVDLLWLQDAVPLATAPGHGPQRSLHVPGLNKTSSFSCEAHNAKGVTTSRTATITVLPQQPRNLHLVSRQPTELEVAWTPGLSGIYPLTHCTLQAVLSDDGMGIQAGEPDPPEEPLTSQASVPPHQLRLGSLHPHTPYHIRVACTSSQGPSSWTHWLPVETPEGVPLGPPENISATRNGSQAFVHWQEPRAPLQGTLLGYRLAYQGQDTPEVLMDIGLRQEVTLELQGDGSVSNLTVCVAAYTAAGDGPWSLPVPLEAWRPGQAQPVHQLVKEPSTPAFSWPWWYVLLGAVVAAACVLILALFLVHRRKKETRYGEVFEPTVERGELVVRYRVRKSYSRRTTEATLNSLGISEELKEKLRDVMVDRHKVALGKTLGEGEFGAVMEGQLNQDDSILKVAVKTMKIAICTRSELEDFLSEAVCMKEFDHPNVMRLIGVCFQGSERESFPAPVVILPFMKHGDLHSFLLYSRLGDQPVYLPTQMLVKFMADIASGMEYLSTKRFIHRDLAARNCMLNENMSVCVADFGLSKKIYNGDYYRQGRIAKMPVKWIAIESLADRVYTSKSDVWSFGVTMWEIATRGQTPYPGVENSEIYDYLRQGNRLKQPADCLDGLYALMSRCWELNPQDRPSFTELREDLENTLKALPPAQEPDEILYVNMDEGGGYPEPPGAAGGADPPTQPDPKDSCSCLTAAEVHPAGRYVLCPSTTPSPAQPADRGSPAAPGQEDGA
smiles,measurement,value
CN(C(=O)CN1CCOCC1)c1ccc2sc3c(-c4cccc5c(=O)cc(N6CC7CCC(C6)O7)oc45)cccc3c2c1 [NU5455],inhibition at 1 µM,-4.2%
